Experimental data taken from patent publication US12678440B2, “Compositions and methods for treating misfolded protein ocular disorders” (CASE WESTERN RESERVE UNIVERSITY, priority 2020, dated 2026).

Legend:
Format in all cases: cell-based
[1] = system: P23H mutant mouse rhodopsin fused with Renilla luciferase (Rluc); assay: Rluc (luciferase) reporter assay in Hek293 (RHO^P23H-Rluc) cells; settings: for Efficacy, Rluc assay Hek293 (RHO^P23H − Rluc): 24 h, DMSO 0%, Evans Blue −100% controls; for EC50: 24 h compound treatment, dose-response, triplicate
Excerpt: Two Hek293 stable cell lines, Hek293 (RHO^WT-Rluc) and Hek293 (RHO^P23H-Rluc) cells were generated which stably express the WT and P23H mutant mouse rhodopsin each fused with a Renilla luciferase (Rluc) for the luciferase reporter assay as previously described. Briefly, the Hek 293 cells (ATCC, Manassas, VA, USA) were transfected with the pcDNA3.1 Zeo containing the cDNA of mouse WT or P23H rhodopsin fused with a Rluc 8 (a gift from Dr. Navine Lambert at Augusta University, Augusta, GA USA) and transfected cells were incubated in Dulbecco's modified Eagle's medium (DMEM, Genesee Scientific, E1 Cajon, CA USA) with 10% fetal bovine serum (FBS, Gibco Laboratories, Gaithersburg, MD USA) for 48 h before addition of 400 μg/mL of Zeocin (InvivoGen, San Diego, CA USA) for positive clone selection. Colonies of cells survived from 1 week of Zeocin selection were collected, and expression of WT and P23H rhodopsin were confirmed by a luciferase assay and immunoblotting of rhodopsin with positive bands of monomers at about 70 kD (FIG. 8). The difference of molecular masses between WT and P23H rhodopsin proteins was due to differences in glycosylation, which was also seen in the NIH3T3 cells expressing the WT and P23H rhodopsin proteins.
The HTS was performed at three facilities, including University of Cincinnati (UC), Case Western Reserve University, and National Center for Advancing Translational Sciences (NCATS), testing a total of six compound collections. These compound collections include: 1) the UC 10K Diversity Set (10,011 compounds), 2) the Life Chemicals 50K Collection (50,560), 3) the Spectrum Collection (2,400 compounds), 4) the LOPAC collection (1,280 compounds), 5) the FDA collection (2,816 compounds), and 6) the NCATS MIPE collection (1,912 compounds). […] For the compound collections 1), 2) and 3), we firstly tested each compound using the P23H rhodopsin luciferase reporter assay at a single dose for once (9.93 to 16.13 μM) in 384-well format, and we identified 2072 compounds with activity scores lower than the cutoff at mean-2SD. Activity scores were normalized using DMSO treated cells as 0% control and the 1 mM Evans Blue treated cells as −100% control. From these hit compounds, we excluded those reported with luciferase inhibitor activities and cherry-picked the rest for hit confirmation. Each hit was tested at 10 μM in the Hek293 (RHO^P23H-Rluc) cells again by the luciferase reporter assay in triplicates, and the confirmed hits with activity scores lower than-50% were then counter screened for their effects on Rluc activity by the recombinant Rluc activity assay, and on WT rhodopsin level by the luciferase reporter assay in the Hek293 (RHO^WT-Rluc) cells at 10 μM in triplicates, respectively. […] Next, we tested the dose responses of these confirmed hits in both the Hek293 (RHO^P23H-Rluc) and the Hek293 (RHO^WT-Rluc) cells and identified compounds that selectively favored the clearance of P23H than WT rhodopsin in a dose-dependent manner (Table 4). For the compound collections 4)-6), we tested each compound directly at 7 or 11 doses using the luciferase reporter assay in the Hek293 (RHO^P23H-Rluc) cells in 1536-well format, and identified 128 compounds with efficacy smaller than-50% and EC50<20 μM.
The Rluc reporter assay has been described before. HTS was undertaken in 384-well format for the UC 10K Diversity Set, Spectrum Collection and the Life Chemicals 50K diversity set, and in 1536-well format for the FDA, LOPAC, and MIPE collections. Using the 384-well format as an example, Hek (RHO^P23H-Rluc) cells were seeded in 384-well white-wall clear-bottom plates (assay plates) at 3×10^5/mL for 40 μL/well by an 8-channel Multiflo liquid dispenser (Bioteck, Winooski, VT USA). The assay plates were centrifuged at 300×g for 30 s and cultured at 37° C. with 5% CO2 overnight. […]

[2] = system: P23H rhodopsin; assay: Rhodopsin dot blot of NIH3T3 stable cells; settings: 10 μM, 24 h, vs DMSO
Method: NIH3T3 (RHO^P23H/GFP) or NIH3T3 (RHO^WT/GFP) cells were seeded at 2.5×10^4 cells/well in 100 μL/well complete medium in a 96-well plate and cultured at 37° C. with 5% CO2 for 4 h. Cells then were treated with 100 μL/well complete medium containing 2×the final concentration of tested compounds. After 24 h of further incubation at 37° C. with 5% CO2, the medium was aspirated, and the cells were washed once with PBS. The cell lysis buffer containing radioimmunoprecipitation assay (RIPA) buffer and complete protease inhibitor cocktail (Roche Diagnostics, Basel, Switzerland) were added to the cells at 200 μL/well followed by sonication for 6 s. Because the cellular protein level of RHO^WT was higher than RHO^P23H, 5% of one well NIH3T3 (RHO^WT/GFP) cells samples and 90% of one well NIH3T3 (RHO^P23H/GFP) cells samples were loaded to a nitrocellulose membrane and air-dried. Opsin protein was immunostained with 0.1 μg/mL HRP-conjugated 1D4 anti-rhodopsin antibody. Densitometry of the bands was measured by the ImageJ software and normalized to DMSO-treating control.

[3] = system: P23H rhodopsin; assay: Non-radioactive pulse-chase assay in NIH3T3 (RHO^P23H/GFP) cells; settings: 10 μM; for Rate of Rho^P23H degradation (Pulse-chase): 24 h of chase, vs DMSO; for BTN-AHA labeled P23H rhodopsin at 24 h of chase: in comparison to DMSO control
Method: To quantify rhodopsin degradation, a non-radioactive pulse-chase assay was used with a ‘click’ reaction. Briefly, NIH3T3 (Rho^P23H/GFP) or NIH3T3 (Rho^WT/GFP) cells were cultured in a 24-well plate at 3×10^5 cells/well in the complete medium with 10% FBS. The medium was aspirated after overnight culture, and cells were gently washed once with 1 mL/well of PBS. Cell were incubated in the L-methionine-free DMEM (Gibco, 21013-024, Gaithersburg, MD USA) for 1 h to exhaust the intracellular methionine. Then the cells were pulsed with L-AHA at final concentration 50 μM for 4 h. Meanwhile, the cells treated with 50 μM L-methionine were used as negative control. After labeling, cells were replaced with the complete DMEM medium with 2 mM L-methionine in the presence or absence of active compounds for a varying time of chase. Then cells were lysed with PBS containing 0.1% SDS, 1% DDM and the complete protease inhibitor cocktail. The total protein concentrations were measured by a BCA assay. Cell lysate containing 200 μg total protein was mixed with 5 μM BTN-sDIBO to make a ‘click’ reaction for 1 h at 37° C. Samples were incubated with Dynabeads™ Protein G binding with 1D4 anti-rhodopsin antibody for 15 min at room temperature followed by three washes with PBS containing 0.02% Tween 20. Proteins were eluted with 50 mM Glycine at pH 2.8 for 10 min at room temperature and then loaded onto nitrocellulose membranes. After air-dried, the membranes were blocked with 5% milk and immunoblotted with 0.25 μg/mL HRP-conjugated SA.

SMILES | EC50 [1] [nM] | Efficacy, Rluc assay Hek293 (RHO^P23H − Rluc) [1] [%] | Rho protein level (Dot blot) [2] | Rate of Rho^P23H degradation (Pulse-chase) [3] | BTN-AHA labeled P23H rhodopsin at 24 h of chase [3]
CC(=O)OC(CC(=O)O)C[N+](C)(C)C (centres unmarked) [CL-002] | 2000 | −86.1 | Down | Up | significantly reduced
NCC(=O)COP(=O)(O)O [CL-005] | 6600 | −78.2 | Down | Up | significantly reduced
O=C(NC1CCNCC1)c1n[nH]cc1NC(=O)c1c(Cl)cccc1Cl [CL-006] | 1700 | −66.2 | Down | No Change | –
CCn1cnc2c(N)ncnc21 [CL-007] | 13000 | −72.5 | Down | Up | significantly reduced
CN(Cc1cnc2nc(N)nc(N)c2n1)c1ccc(C(=O)N[C@@H](CCC(=O)O)C(=O)O)cc1 [CL-009, N-[4-[[(2,4-diamino-6-pteridinyl)methyl]methylamino]benzoyl]-L-glutamic acid] | 430 | −53.0 | Down | Up | significantly reduced

More lines, main results first:

EC50 [1] [nM] | SMILES | Efficacy, Rluc assay Hek293 (RHO^P23H − Rluc) [1] [%] | Rho protein level (Dot blot) [2] | Rate of Rho^P23H degradation (Pulse-chase) [3] | BTN-AHA labeled P23H rhodopsin at 24 h of chase [3]
1100 | CC(=O)OC(CC(=O)[O-])C[N+](C)(C)C (centres unmarked) [CL-001] | −69.4 | Down | Up | significantly reduced
890 | O=C(O)C1=CC=CC(O)C1O (centres unmarked) [CL-003] | −65.3 | Down | No Change | –
1600 | CC(O)CN (centres unmarked) [CL-004] | −68.6 | Down | No Change | –
930 | CCC(C)(O)C(O)C(=O)O (centres unmarked) [CL-008] | −89.5 | Down | No Change | –
